# Patent publication US7439415B2, “Population of Hoxb8 mutants and uses in identifying agents for treating repetitive behaviors” (priority 2001, dated 2008)
# Structures can show the parent of a compound that is named as a salt.
# System: Hoxb8 mutant animals
# Test: Fluoxetine treatment of Hoxb8 mutant mice with excessive grooming (induced grooming assay / hair regrowth)
# Type: in vivo, mouse
# Conditions: 10 mg/kg/day via Alzet mini-osmotic pumps, thirty days of treatment
structure (smiles),measurement,value
"CNCCC(Oc1ccc(C(F)(F)F)cc1)c1ccccc1 (stereo not shown) [Flu, Fluoxetine-HCl]",hair regrowth / efficacy against excessive grooming behavior,exhibited signs of hair regrowth
